Assay results from ChEMBL document CHEMBL1949518, “Synthesis and biological evaluation of some new 2-pyrazolines bearing benzene sulfonamide moiety as potential anti-inflammatory and anti-cancer agents” (Eur J Med Chem, 2011).

Key:
Format in all cases: functional
[1] = system: SN12C; test: Antiproliferative activity against human SN12C cells assessed as cell growth at 10^-5 M after 48 hrs by SRB assay relative to control; conditions: read-out: Activity
[2] = system: RXF 393; test: Antiproliferative activity against human RXF393 cells assessed as cell growth at 10^-5 M after 48 hrs by SRB assay relative to control; conditions: RXF 393, 48 h, read-out: Activity
[3] = system: T47D; test: Antiproliferative activity against human T47D cells assessed as cell growth at 10^-5 M after 48 hrs by SRB assay relative to control; conditions: read-out: Activity
[4] = system: MCF7; test: Antiproliferative activity against human MCF7 cells assessed as cell growth at 10^-5 M after 48 hrs by SRB assay relative to control; conditions: MCF7, 48 h, read-out: Activity
[5] = system: 786-0; test: Antiproliferative activity against human 786-0 cells assessed as cell growth at 10^-5 M after 48 hrs by SRB assay relative to control; conditions: 786-0, 48 h, read-out: Activity
[6] = system: SF-539; test: Anticancer activity against human SF539 cells after 48 hrs by SRB assay; conditions: SF-539, 48 h
[7] = system: MDA-MB-468; test: Antiproliferative activity against human MDA-MB-468 cells assessed as cell growth at 10^-5 M after 48 hrs by SRB assay relative to control; conditions: MDA-MB-468, 48 h, read-out: Activity
[8] = system: CCRF-CEM; test: Anticancer activity against human CCRF-CEM cells after 48 hrs by SRB assay; conditions: for CC50: read-out: LC50 (the source's name)
[9] = system: UACC-62; test: Anticancer activity against human UACC62 cells after 48 hrs by SRB assay; conditions: UACC-62, 48 h
[10] = Anticancer activity against human Hs 578T cells after 48 hrs by SRB assay; conditions: for CC50: read-out: LC50 (the source's name)
[11] = system: Malme-3M; test: Antiproliferative activity against human MALME-3M cells assessed as cell growth at 10^-5 M after 48 hrs by SRB assay relative to control; conditions: read-out: Activity
[12] = system: OVCAR-5; test: Antiproliferative activity against human OVCAR5 cells assessed as cell growth at 10^-5 M after 48 hrs by SRB assay relative to control; conditions: OVCAR-5, 48 h, read-out: Activity
[13] = system: SW-620; test: Antiproliferative activity against human SW620 cells assessed as cell growth at 10^-5 M after 48 hrs by SRB assay relative to control; conditions: SW-620, 48 h, read-out: Activity
[14] = system: K562; test: Antiproliferative activity against human K562 cells assessed as cell growth at 10^-5 M after 48 hrs by SRB assay relative to control; conditions: K562, 48 h, read-out: Activity
[15] = system: NCI-H522; test: Antiproliferative activity against human NCI-H522 cells assessed as cell growth at 10^-5 M after 48 hrs by SRB assay relative to control; conditions: NCI-H522, 48 h, read-out: Activity
[16] = system: RPMI-8226; test: Antiproliferative activity against human RPMI8226 cells assessed as cell growth at 10^-5 M after 48 hrs by SRB assay relative to control; conditions: RPMI-8226, 48 h, read-out: Activity
[17] = system: IGROV-1; test: Anticancer activity against human IGROV1 cells after 48 hrs by SRB assay; conditions: IGROV-1, 48 h
[18] = system: SNB-19; test: Anticancer activity against human SNB19 cells after 48 hrs by SRB assay; conditions: SNB-19, 48 h
[19] = system: HL-60(TB); test: Anticancer activity against human HL-60(TB) cells after 48 hrs by SRB assay; conditions: HL-60, 48 h
[20] = system: NCI-H23; test: Antiproliferative activity against human NCI-H23 cells assessed as cell growth at 10^-5 M after 48 hrs by SRB assay relative to control; conditions: NCI-H23, 48 h, read-out: Activity
[21] = system: SF-268; test: Antiproliferative activity against human SF268 cells assessed as cell growth at 10^-5 M after 48 hrs by SRB assay relative to control; conditions: SF-268, 48 h, read-out: Activity
[22] = system: SK-OV-3; test: Antiproliferative activity against human SKOV3 cells assessed as cell growth at 10^-5 M after 48 hrs by SRB assay relative to control; conditions: SK-OV-3, 48 h, read-out: Activity
[23] = system: Rattus norvegicus; test: Antiinflammatory activity in Wistar rat assessed as inhibition of carrageenan-induced paw edema at 20 mg/kg, po administered 30 mins before carrageenan challenge measured after 5 hrs
[24] = system: OVCAR-4; test: Antiproliferative activity against human OVCAR4 cells assessed as cell growth at 10^-5 M after 48 hrs by SRB assay relative to control; conditions: OVCAR-4, 48 h, read-out: Activity
[25] = system: A498; test: Antiproliferative activity against human A498 cells assessed as cell growth at 10^-5 M after 48 hrs by SRB assay relative to control; conditions: A498, 48 h, read-out: Activity
[26] = system: UACC-62; test: Antiproliferative activity against human UACC62 cells assessed as cell growth at 10^-5 M after 48 hrs by SRB assay relative to control; conditions: UACC-62, 48 h, read-out: Activity
[27] = system: HCC 2998; test: Antiproliferative activity against human HCC2998 cells assessed as cell growth at 10^-5 M after 48 hrs by SRB assay relative to control; conditions: HCC 2998, 48 h, read-out: Activity
[28] = system: RXF 393; test: Anticancer activity against human RXF393 cells after 48 hrs by SRB assay; conditions: RXF 393, 48 h; for CC50: read-out: LC50 (the source's name)
[29] = system: HOP-92; test: Antiproliferative activity against human HOP92 cells assessed as cell growth at 10^-5 M after 48 hrs by SRB assay relative to control; conditions: HOP-92, 48 h, read-out: Activity
[30] = system: SF-539; test: Antiproliferative activity against human SF539 cells assessed as cell growth at 10^-5 M after 48 hrs by SRB assay relative to control; conditions: SF-539, 48 h, read-out: Activity
[31] = system: PC-3; test: Antiproliferative activity against human PC3 cells assessed as cell growth at 10^-5 M after 48 hrs by SRB assay relative to control; conditions: PC-3, 48 h, read-out: Activity
[32] = system: HT-29; test: Anticancer activity against human HT-29 cells after 48 hrs by SRB assay; conditions: HT-29, 48 h
[33] = system: HL-60(TB); test: Antiproliferative activity against human HL-60(TB) cells assessed as cell growth at 10^-5 M after 48 hrs by SRB assay relative to control; conditions: HL-60, 48 h, read-out: Activity
[34] = system: MOLT-4; test: Antiproliferative activity against human MOLT4 cells assessed as cell growth at 10^-5 M after 48 hrs by SRB assay relative to control; conditions: MOLT-4, 48 h, read-out: Activity

## Cc1cc(O)c(C2=NN(c3ccc(S(N)(=O)=O)cc3)C(c3ccc(N(C)C)cc3)C2)c(C)c1Cl (configuration not stated)
[1]
  growth at 10 µM: 36.1%
[2]
  growth at 10 µM: 48.1%
[3]
  growth at 10 µM: 46.9%
[4]
  growth at 10 µM: 13%
[5]
  growth at 10 µM: 43.3%
[6]
  GI50: 12.3 µM
  LC50: 49.7 µM
  TGI: 24.7 µM
[7]
  growth at 10 µM: 43.7%
[8]
  GI50: 3.64 µM
  TGI: 13.5 µM
  CC50: 44.4 µM
[9]
  GI50: 3.49 µM
  LC50 (lethal concentration 50%): 38.8 µM
  TGI: 15.1 µM
[10]
  GI50: 3.45 µM
  TGI: 20 µM
  CC50: 91.5 µM
[11]
  growth at 10 µM: 103%
[12]
  growth at 10 µM: 95.2%
[13]
  growth at 10 µM: 48.5%
[14]
  growth at 10 µM: 21%
[15]
  growth at 10 µM: 57.7%
[16]
  growth at 10 µM: -37.6%
[17]
  GI50: 6.19 µM
  LC50: 60.2 µM
  TGI: 22.3 µM
[18]
  GI50: 12.4 µM
  LC50: 49.9 µM
  TGI: 24.9 µM
[19]
  GI50: 7.84 µM
  TGI: 20.8 µM
[20]
  growth at 10 µM: 78.8%
[21]
  growth at 10 µM: 61.7%
[22]
  growth at 10 µM: 81.6%
[23]
  inhibition in vivo at 20 mg/kg: 36.4%
[24]
  growth at 10 µM: 58.9%
[25]
  growth at 10 µM: 87.2%
[26]
  growth at 10 µM: 53%
[27]
  growth at 10 µM: 66.5%
[28]
  GI50: 5.83 µM
  TGI: 21.2 µM
  CC50: 58.9 µM
[29]
  growth at 10 µM: 21.3%
[30]
  growth at 10 µM: 79%
[31]
  growth at 10 µM: 12.1%
[32]
  GI50: 3.3 µM
  LC50: 37.6 µM
  TGI: 11 µM
[33]
  growth at 10 µM: 18.4%
[34]
  growth at 10 µM: 14.3%

## Cc1cc(O)c(C2=NN(c3ccc(S(N)(=O)=O)cc3)C(c3ccc(Cl)cc3)C2)c(C)c1Cl (configuration not stated)
[1]
  growth at 10 µM: 74.8%
[2]
  growth at 10 µM: 93.4%
[3]
  growth at 10 µM: 37%
[4]
  growth at 10 µM: 37.2%
[5]
  growth at 10 µM: 95.6%
[6]
  GI50: 15.7 µM
  TGI: 29.3 µM
[7]
  growth at 10 µM: 91.1%
[8]
  GI50: 15.1 µM
  TGI: 43.5 µM
  CC50: 100 µM
[9]
  GI50: 9.92 µM
  TGI: 25.8 µM
[10]
  GI50: 23 µM
  TGI: 62.3 µM
  CC50: 100 µM
[11]
  growth at 10 µM: 157%
[12]
  growth at 10 µM: 96.8%
[13]
  growth at 10 µM: 72.2%
[14]
  growth at 10 µM: 25%
[15]
  growth at 10 µM: 39.8%
[16]
  growth at 10 µM: 25.5%
[17]
  GI50: 18.3 µM
  TGI: 59 µM
[18]
  GI50: 22.2 µM
  TGI: 62.6 µM
[19]
  GI50: 20.3 µM
  TGI: 50 µM
[20]
  growth at 10 µM: 79.3%
[21]
  growth at 10 µM: 72.1%
[22]
  growth at 10 µM: 106%
[23]
  inhibition in vivo at 20 mg/kg: 81.8%
[24]
  growth at 10 µM: 58.8%
[25]
  growth at 10 µM: 74.3%
[26]
  growth at 10 µM: 64.8%
[27]
  growth at 10 µM: 94.1%
[28]
  GI50: 24.5 µM
  TGI: 59.1 µM
  CC50: 100 µM
[29]
  growth at 10 µM: 45.5%
[30]
  growth at 10 µM: 91.6%
[31]
  growth at 10 µM: 13.6%
[32]
  GI50: 10.9 µM
  TGI: 25.8 µM
[33]
  growth at 10 µM: 24.1%
[34]
  growth at 10 µM: 27.3%

## COc1ccc(C2CC(c3c(O)cc(C)c(Cl)c3C)=NN2c2ccc(S(N)(=O)=O)cc2)cc1 (configuration not stated)
[1]
  growth at 10 µM: 99.4%
[2]
  growth at 10 µM: 111%
[3]
  growth at 10 µM: 62.1%
[4]
  growth at 10 µM: 71.6%
[5]
  growth at 10 µM: 92.5%
[7]
  growth at 10 µM: 91.5%
[11]
  growth at 10 µM: 138%
[12]
  growth at 10 µM: 86.6%
[13]
  growth at 10 µM: 94.8%
[14]
  growth at 10 µM: 44.1%
[15]
  growth at 10 µM: 71.5%
[16]
  growth at 10 µM: 63.9%
[20]
  growth at 10 µM: 108%
[21]
  growth at 10 µM: 76.1%
[22]
  growth at 10 µM: 101%
[23]
  inhibition in vivo at 20 mg/kg: 36.4%
[24]
  growth at 10 µM: 86.4%
[25]
  growth at 10 µM: 93.2%
[26]
  growth at 10 µM: 74%
[27]
  growth at 10 µM: 97.6%
[29]
  growth at 10 µM: 43.3%
[30]
  growth at 10 µM: 92.3%
[31]
  growth at 10 µM: 56.2%
[33]
  growth at 10 µM: 69.1%
[34]
  growth at 10 µM: 36.5%
